Test results from patent publication US7064133B2, “Quinoline derivatives process of synthesis and medicaments containing these derivatives” (Bioalliance Pharma, priority 2001, dated 2006).

Columns and labels:
Format in all cases: cell-based
CEM = assay: Cytotoxicity, MTT to formazan test, cells in suspension; conditions: at 500 μM
Experimental: (§1) The toxicity of the compounds is evaluated by a test of biotransformation of MTT to formazan by cellular mitochondrial dehydrogenases.

HeLa = assay: Cytotoxicity, MTT to formazan test, adherent cells; conditions: at 500 μM
Experimental: as §1

[1] = tested on: integration of viral DNA into the host genome; assay: Inhibition of the integration of viral DNA into the host genome (PCR, densitometry) in infected CEM cells; conditions: 24 hours
Experimental: This test consists in bringing CEM cells into contact with the supernatant of infected cells containing the infectious virions. After 2 hours, the cells are washed and placed again in RPMI medium containing the compound according to the invention for 24 hours (BioA53). The DNA of the cells is then extracted using a genomic DNA preparation kit (QiaBlood, Qiagen™). This DNA is the target for PCR amplifications aimed at evaluating, on the one hand, the quantity of total viral DNA present in the solution, and, on the other hand, the quantity of viral DNA integrated into the cellular genome. The latter amplification takes place in two stages: the first step uses a PCR primer homologous to a sequence of the retroviral DNA; the second primer is homologous to the repetitive genomic Alu sequences. The second stage is a nested PCR which makes it possible to visualize the retroviral DNA.
The quantity of DNA is evaluated by densitometry after separation of the amplification products on agarose gel.

Row | Structure (SMILES) | cytotoxicity (MTT) (CEM) | cytotoxicity (MTT) (HeLa) | decrease in the quantity of DNA integrated ([1]; 50 μM, CEM cells) | inhibition of DNA integrated ([1]; 100 μM, CEM cells) | quantity of total viral DNA ([1]; treatment of CEM cells with the compound)
1 | O=C(NCc1ccc(O)c(O)c1)c1ccc2ccc(C(=O)[O-])c(O)c2n1.[Na+] [BioA53, sodium 2-(3,4-dihydroxybenzylcarbamoyl)-8-hydroxyquinoline-7-carboxylate] | lacks cytotoxicity | lacks cytotoxicity | at least 80% | inhibition of the entire DNA integrated | not affected
2 | O=C(NCc1ccc(O)cc1O)c1ccc2ccc(C(=O)[O-])c(O)c2n1.[Na+] [BioA163, sodium 2-(2,4-dihydroxybenzylcarbamoyl)-8-hydroxyquinoline-7-carboxylate] | lacks cytotoxicity | lacks cytotoxicity | – | – | –
